Data published in ChEMBL document CHEMBL5335794, “Discovery of novel multifunctional ligands targeting GABA transporters, butyrylcholinesterase, β-secretase, and amyloid β aggregation as potential treatment of Alzheimer's disease” (Eur J Med Chem, 2023).
Activity calls are given as the source filed them. No cut-off for these calls is given here.

Tests used:
[1] = molecular target: T1, Sodium- and chloride-dependent GABA transporter 1 (Mus musculus, UniProt P31648); assay: Inhibition of mouse GAT1 expressed in HEK293 cells assessed as reduction in [3H]-GABA uptake; format: cell-based
[2] = molecular target: T2, GABA transporter 2 (Mus musculus) (UniProt P31651); assay: Inhibition of mouse GAT2 transfected in HEK293 cells assessed as reduction in [3H]-GABA uptake by measuring residual activity at 100 uM relative to control; format: cell-based
T2 sequence (whole entry): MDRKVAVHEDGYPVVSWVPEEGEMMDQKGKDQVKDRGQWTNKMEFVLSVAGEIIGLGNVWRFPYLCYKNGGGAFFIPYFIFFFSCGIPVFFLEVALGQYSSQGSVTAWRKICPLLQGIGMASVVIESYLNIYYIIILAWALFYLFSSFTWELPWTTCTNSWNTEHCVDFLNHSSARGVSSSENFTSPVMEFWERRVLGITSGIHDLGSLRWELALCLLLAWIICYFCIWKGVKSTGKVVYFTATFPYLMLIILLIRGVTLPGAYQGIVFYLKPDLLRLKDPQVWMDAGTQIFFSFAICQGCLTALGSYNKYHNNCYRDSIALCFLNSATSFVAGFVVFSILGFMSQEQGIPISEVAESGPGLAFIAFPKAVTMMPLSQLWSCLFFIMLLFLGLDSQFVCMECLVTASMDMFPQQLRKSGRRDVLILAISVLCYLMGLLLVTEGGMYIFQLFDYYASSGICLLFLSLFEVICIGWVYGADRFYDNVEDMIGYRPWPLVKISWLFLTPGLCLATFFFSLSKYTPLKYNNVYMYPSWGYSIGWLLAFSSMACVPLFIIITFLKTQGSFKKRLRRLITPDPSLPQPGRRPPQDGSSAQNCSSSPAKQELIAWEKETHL

HEK293 [3] = assay: Inhibition of mouse GAT3 transfected in HEK293 cells assessed as reduction in [3H]-GABA uptake by measuring residual activity at 100 uM relative to control; format: cell-based
GABA transporter 4 [4] = molecular target: T3, GABA transporter 4 (Mus musculus, UniProt P31650); assay: Inhibition of mouse GAT4 transfected in HEK293 cells assessed as reduction in [3H]-GABA uptake; format: cell-based
T3 sequence (P31650 whole entry): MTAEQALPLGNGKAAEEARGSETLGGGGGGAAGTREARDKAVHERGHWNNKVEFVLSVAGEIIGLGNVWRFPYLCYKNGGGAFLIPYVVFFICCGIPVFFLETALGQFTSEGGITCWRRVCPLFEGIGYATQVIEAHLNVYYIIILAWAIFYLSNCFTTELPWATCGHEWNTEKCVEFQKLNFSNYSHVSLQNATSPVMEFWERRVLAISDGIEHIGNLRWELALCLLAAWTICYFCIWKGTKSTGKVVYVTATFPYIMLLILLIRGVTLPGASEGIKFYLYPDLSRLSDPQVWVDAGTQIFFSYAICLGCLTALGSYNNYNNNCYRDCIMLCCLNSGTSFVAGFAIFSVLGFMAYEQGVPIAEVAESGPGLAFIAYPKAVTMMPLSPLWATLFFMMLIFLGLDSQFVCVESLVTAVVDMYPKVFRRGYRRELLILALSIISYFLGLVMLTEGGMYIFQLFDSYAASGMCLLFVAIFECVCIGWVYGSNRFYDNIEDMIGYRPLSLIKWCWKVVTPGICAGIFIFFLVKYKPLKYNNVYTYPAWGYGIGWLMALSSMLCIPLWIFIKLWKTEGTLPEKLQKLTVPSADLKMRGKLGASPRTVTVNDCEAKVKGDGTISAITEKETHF

[5] = molecular target: Amyloid-beta precursor protein (Homo sapiens) (UniProt P05067); assay: Inhibition of amyloid beta42 (unknown origin) aggregation expressed in Escherichia coli BL21 (DE3) at 10 uM measured every 5 mins by ThT fluorescence based assay relative to control
Sequence of Amyloid-beta precursor protein (Homo sapiens) (P05067 whole entry): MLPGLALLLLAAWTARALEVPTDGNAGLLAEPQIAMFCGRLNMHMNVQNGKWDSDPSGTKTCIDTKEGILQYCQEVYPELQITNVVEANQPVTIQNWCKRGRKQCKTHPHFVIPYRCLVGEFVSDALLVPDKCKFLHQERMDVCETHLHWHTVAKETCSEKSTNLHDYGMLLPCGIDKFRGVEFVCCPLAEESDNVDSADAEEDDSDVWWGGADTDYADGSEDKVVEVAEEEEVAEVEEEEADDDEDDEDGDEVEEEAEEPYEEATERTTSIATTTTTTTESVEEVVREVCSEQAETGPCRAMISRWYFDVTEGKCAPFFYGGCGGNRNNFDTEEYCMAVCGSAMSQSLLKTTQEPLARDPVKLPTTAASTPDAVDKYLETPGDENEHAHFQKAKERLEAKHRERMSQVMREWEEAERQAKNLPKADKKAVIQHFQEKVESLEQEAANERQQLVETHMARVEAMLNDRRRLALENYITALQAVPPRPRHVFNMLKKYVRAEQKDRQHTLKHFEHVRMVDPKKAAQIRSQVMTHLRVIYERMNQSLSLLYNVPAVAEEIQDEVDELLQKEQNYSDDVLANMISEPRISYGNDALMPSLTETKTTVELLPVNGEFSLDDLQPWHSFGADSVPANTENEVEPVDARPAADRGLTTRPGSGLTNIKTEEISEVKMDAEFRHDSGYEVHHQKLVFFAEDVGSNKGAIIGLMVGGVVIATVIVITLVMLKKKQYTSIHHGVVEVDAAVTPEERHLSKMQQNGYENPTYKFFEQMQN

[6] = molecular target: T1, Sodium- and chloride-dependent GABA transporter 1; assay: Inhibition of mouse GAT1 transfected in HEK293 cells assessed as reduction in [3H]-GABA uptake preincubated for 25 mins followed by [3H]-GABA addition and measured after 4 mins by liquid scintillation counting analysis; format: cell-based; details: read-out: pIC50 (converted)
GABA transporter 2 [7] = molecular target: T4, GABA transporter 2 (Mus musculus, UniProt P31651); assay: Inhibition of mouse GAT2 transfected in HEK293 cells assessed as reduction in [3H]-GABA uptake preincubated for 25 mins followed by [3H]-GABA addition and measured after 10 mins by liquid scintillation counting analysis; format: cell-based; details: read-out: pIC50 (converted)
T4 sequence (P31651 whole entry): T2 sequence (whole entry)

[8] = Inhibition of mouse GAT3 transfected in HEK293 cells assessed as reduction in [3H]-GABA uptake preincubated for 25 mins followed by [3H]-GABA addition and measured after 4 mins by liquid scintillation counting analysis; format: cell-based; details: HEK293; read-out: pIC50 (converted)
GABA transporter 4 [9] = molecular target: T3, GABA transporter 4; assay: Inhibition of mouse GAT4 transfected in HEK293 cells assessed as reduction in [3H]-GABA uptake preincubated for 25 mins followed by [3H]-GABA addition and measured after 4 mins by liquid scintillation counting analysis; format: cell-based; details: read-out: pIC50 (converted)
[10] = molecular target: T1, Sodium- and chloride-dependent GABA transporter 1; assay: Inhibition of NO 711 marker binding to mouse GAT1 by LC-ESI-MS/MS based competitive MS binding assay
[11] = molecular target: Acetylcholinesterase (Electrophorus electricus) (UniProt O42275); assay: Inhibition of electric eel AChE using acetylthiocholine iodide as substrate at 10 uM preincubated for 5 mins followed by substrate addition and measured after 5 mins by DTNB reagent based Ellman's method relative to control; details: time 10.0 min
Sequence of Acetylcholinesterase (Electrophorus electricus) (O42275 24-633 limits assumed): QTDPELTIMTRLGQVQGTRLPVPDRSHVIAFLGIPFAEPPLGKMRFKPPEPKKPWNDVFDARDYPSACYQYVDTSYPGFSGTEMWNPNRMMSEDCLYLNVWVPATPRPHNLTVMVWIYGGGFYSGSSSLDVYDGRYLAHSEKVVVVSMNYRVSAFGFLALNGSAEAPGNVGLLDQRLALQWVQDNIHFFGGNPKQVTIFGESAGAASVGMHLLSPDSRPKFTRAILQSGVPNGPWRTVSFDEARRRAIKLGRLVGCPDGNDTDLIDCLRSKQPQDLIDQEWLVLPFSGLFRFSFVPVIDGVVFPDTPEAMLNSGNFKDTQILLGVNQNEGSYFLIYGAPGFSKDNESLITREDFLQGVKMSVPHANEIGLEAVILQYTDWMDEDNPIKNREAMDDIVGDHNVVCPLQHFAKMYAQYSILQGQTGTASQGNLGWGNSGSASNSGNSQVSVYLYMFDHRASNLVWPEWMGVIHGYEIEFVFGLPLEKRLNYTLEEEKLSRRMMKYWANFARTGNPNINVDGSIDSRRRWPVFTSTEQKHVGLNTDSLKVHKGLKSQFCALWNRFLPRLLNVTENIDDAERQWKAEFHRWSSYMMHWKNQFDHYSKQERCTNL

[12] = molecular target: Amyloid-beta precursor protein (Homo sapiens) (UniProt P05067); assay: Inhibition of amyloid beta40 (unknown origin) aggregation at 10 uM measured every 5 mins by ThT fluorescence based assay relative to control
[13] = molecular target: Amyloid-beta precursor protein (Homo sapiens) (UniProt P05067); assay: Inhibition of soluble amyloid beta40 (unknown origin) aggregation at 10 uM measured after 24 hrs by ThT fluorescence based assay relative to control
[14] = molecular target: Amyloid-beta precursor protein (Homo sapiens) (UniProt P05067); assay: Inhibition of soluble amyloid beta40 (unknown origin) aggregation assessed as nucleation constant at 10 uM measured after 24 hrs by ThT fluorescence based assay (reference value: […] 10^-4/min)
[15] = molecular target: Amyloid-beta precursor protein (Homo sapiens) (UniProt P05067); assay: Inhibition of soluble amyloid beta40 (unknown origin) aggregation assessed as elongation constant at 10 uM measured after 24 hrs by ThT fluorescence based assay (reference value: […] /M/min)
[16] = molecular target: Amyloid-beta precursor protein (Homo sapiens) (UniProt P05067); assay: Inhibition of soluble amyloid beta40 (unknown origin) aggregation assessed as lag time of amyloid polymerization at 10 uM measured after 24 hrs by ThT fluorescence based assay (reference value: […] min)
[17] = molecular target: Amyloid-beta precursor protein (Homo sapiens) (UniProt P05067); assay: Inhibition of soluble amyloid beta40 (unknown origin) aggregation assessed as time of half-aggregation at 10 uM measured after 24 hrs by ThT fluorescence based assay (reference value: […] min)
[18] = molecular target: Amyloid-beta precursor protein (Homo sapiens) (UniProt P05067); assay: Inhibition of soluble amyloid beta40 (unknown origin) aggregation assessed as end time of amyloid polymerization at 10 uM measured after 24 hrs by ThT fluorescence based assay (reference value: […] min)
[19] = molecular target: Amyloid-beta precursor protein (Homo sapiens) (UniProt P05067); assay: Inhibition of soluble amyloid beta40 (unknown origin) aggregation assessed as fold reduction in nucleation ratio at 10 uM measured after 24 hrs by ThT fluorescence based assay
[20] = molecular target: Amyloid-beta precursor protein (Homo sapiens) (UniProt P05067); assay: Inhibition of soluble amyloid beta40 (unknown origin) aggregation assessed as inhibition of fibril elongation by measuring fold reduction in elongation ratio at 10 uM measured after 24 hrs by ThT fluorescence based assay
HEK293 [21] = assay: Cytotoxicity against HEK293 cells assessed as reduction in cell viability at 0.1 to 1 uM incubated for 72 hrs by MTS assay; format: toxicity, cell-based; details: human, hek293, 72 h, dose 0.1-1 µM
HepG2 = assay: Cytotoxicity against human HepG2 cells assessed as reduction in cell viability at 0.1 to 1 uM incubated for 72 hrs by MTS assay; format: toxicity, cell-based; details: hepg2, 72 h, dose 0.1-1 µM
Mus musculus [22] = assay: (§1) Cognitive enhancing activity in Albino Swiss (CD-1) mouse model of scopolamine induced cognitive dysfunction and amnesia assessed as prolongation of step-through latency in acquisition phase at 30 mg/kg, ip pretreated for 30 mins followed by scopolamine administration and measured after 30 mins by passive avoidance test; format: functional, organism-based; details: time 60.0 min
Mus musculus [23] = assay: (§2) Cognitive enhancing activity in Albino Swiss (CD-1) mouse model of scopolamine induced cognitive dysfunction and amnesia assessed as prolongation of step-through latency in retention trail at 10 to 30 mg/kg, ip pretreated for 30 mins followed by scopolamine administration and measured after 30 mins by passive avoidance test; format: functional, organism-based; details: dose 10-30 mg/kg, time 60.0 min
Mus musculus [24] = assay: Cognitive enhancing activity in Albino Swiss (CD-1) mouse model of scopolamine induced memory deficits and amnesia assessed as increase in discrimination index at 30 mg/kg, ip pretreated for 30 mins followed by scopolamine administration and measured after 30 mins by Novel object recognition test; format: functional, organism-based; details: time 60.0 min
Cholinesterase = Cholinesterase (Equus caballus, UniProt P81908)
Sequence of Cholinesterase (P81908 whole entry): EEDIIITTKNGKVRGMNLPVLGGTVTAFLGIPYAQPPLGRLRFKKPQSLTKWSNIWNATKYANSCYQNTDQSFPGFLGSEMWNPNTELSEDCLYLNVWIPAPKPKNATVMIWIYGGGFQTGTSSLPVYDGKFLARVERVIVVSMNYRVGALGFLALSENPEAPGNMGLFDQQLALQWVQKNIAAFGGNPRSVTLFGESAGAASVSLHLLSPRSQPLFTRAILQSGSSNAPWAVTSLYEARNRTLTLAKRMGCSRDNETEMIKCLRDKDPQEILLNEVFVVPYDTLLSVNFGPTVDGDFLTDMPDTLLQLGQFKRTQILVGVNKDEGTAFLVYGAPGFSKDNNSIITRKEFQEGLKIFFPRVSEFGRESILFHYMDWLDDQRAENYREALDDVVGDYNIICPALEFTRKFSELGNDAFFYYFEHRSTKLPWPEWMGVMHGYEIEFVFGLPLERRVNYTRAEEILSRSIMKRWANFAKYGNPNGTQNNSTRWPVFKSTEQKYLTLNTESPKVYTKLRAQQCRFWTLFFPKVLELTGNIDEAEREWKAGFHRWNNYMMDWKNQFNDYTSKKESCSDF
Description: Inhibition of equine serum BuChE using butyrylthiocholine iodide as substrate preincubated for 5 mins followed by substrate addition and measured after 5 mins by DTNB reagent based Ellman's method

Beta-secretase 1 = Beta-secretase 1 (Homo sapiens, UniProt P56817)
Sequence of Beta-secretase 1 (P56817 whole entry): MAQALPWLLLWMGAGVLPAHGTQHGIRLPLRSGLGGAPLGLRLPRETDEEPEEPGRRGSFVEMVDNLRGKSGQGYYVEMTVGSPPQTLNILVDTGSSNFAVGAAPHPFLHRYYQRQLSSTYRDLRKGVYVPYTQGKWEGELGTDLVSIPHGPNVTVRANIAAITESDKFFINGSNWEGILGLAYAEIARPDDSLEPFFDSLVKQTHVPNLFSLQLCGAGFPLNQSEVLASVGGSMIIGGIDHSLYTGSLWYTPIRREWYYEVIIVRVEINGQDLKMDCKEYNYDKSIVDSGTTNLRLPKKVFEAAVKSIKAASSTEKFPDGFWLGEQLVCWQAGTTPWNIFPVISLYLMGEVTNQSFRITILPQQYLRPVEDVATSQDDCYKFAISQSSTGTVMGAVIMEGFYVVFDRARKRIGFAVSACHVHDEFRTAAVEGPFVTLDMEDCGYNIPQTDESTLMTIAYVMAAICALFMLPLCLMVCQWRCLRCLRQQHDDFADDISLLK

[25] = molecular target: Sodium- and chloride-dependent GABA transporter 1 (Mus musculus) (UniProt P31648); assay: Inhibition of NO 711 marker binding to mouse GAT1 assessed as residual activity at 100 uM by LC-ESI-MS/MS based competitive MS binding assay relative to control
[26] = molecular target: Cholinesterase (Equus caballus) (UniProt P81908); assay: Mixed type inhibition of equine serum BuChE using varying concentrations of butyrylthiocholine iodide as substrate preincubated for 5 mins followed by substrate addition and measured after 5 mins by Ellman's method based Lineweaver-Burk plot analysis; details: time 10.0 min
Sequence of Cholinesterase (Equus caballus) (P81908 whole entry): as the sequence (P81908 whole entry) above

[27] = molecular target: Cholinesterase (Equus caballus) (UniProt P81908); assay: Mixed type inhibition of equine serum BuChE using varying concentrations of butyrylthiocholine iodide as substrate preincubated for 5 mins followed by substrate addition and measured after 5 mins by Ellman's method based Cornish-Bowden plot analysis; details: time 10.0 min
Mus musculus [28] = assay: as §1, with “at 10” for “at 30”; format: functional, organism-based; details: time 60.0 min
Mus musculus [29] = assay: as §2, with “at” for “at 10 to”; format: functional, organism-based; details: time 60.0 min
Mus musculus [30] = assay: as §2, with “10” for “10 to 30”; format: functional, organism-based; details: time 60.0 min
GABA transporter 2 [31] = molecular target: T4, GABA transporter 2; assay: Inhibition of mouse GAT2 transfected in HEK293 cells assessed as reduction in [3H]-GABA uptake; format: cell-based
[32] = Inhibition of mouse GAT3 transfected in HEK293 cells assessed as reduction in [3H]-GABA uptake; format: cell-based

Compound `O=C(O)C1=CN(CC/C=C/c2ccccc2-c2ccc(Cl)cc2Cl)CCC1` has an IC50 ([1]; read-out: IC50) of 0.037 µM, an Activity [2] of 73% and an Activity (HEK293 [3]) of 91%. The IC50 (GABA transporter 4 [4]) was 63.1 µM.
Compound `CN(CCOCCN1c2ccccc2Sc2ccccc21)C(CCN)C(=O)NCc1ccc(Cl)cc1` (configuration not stated) has an inhibition [5] of 34.6%, an IC50 [6] of 9.77 µM and an IC50 (GABA transporter 2 [7]) of 12.3 µM. The IC50 [8] was 6.31 µM, the IC50 (GABA transporter 4 [9]) was 12 µM and the Ki [10] was 45.7 µM. It also gave an inhibition [11] of 42%, an inhibition [12] of 98.5% and an inhibition [13] of 85.5%. The K [14] was 4.04 10^-4/min, the K [15] was 74.1 M⁻¹ s⁻¹ and the TIME [16] was 2.91 h. It also gave a T1/2 [17] of 4.68 h, a TIME [18] of 6.46 h and a fold change (FC) [19] of 11. The fold change (FC) [20] was 2, the Activity (HEK293 [21]) was “Non-Toxic” and the Activity (HepG2) was “Non-Toxic”. For the same compound, the Activity (Mus musculus [22]) was “Active”, the Activity (Mus musculus [23]) was “inactive” and the Activity (Mus musculus [24]) was “Active”. The IC50 (Cholinesterase) was 0.559 µM and the IC50 (Beta-secretase 1) was 1.57 µM.
For `CN(CCOCCn1c2ccccc2c2ccccc21)C(CCN)C(=O)NCc1ccccc1` (configuration not stated), the inhibition [5] was 31.7%, the IC50 [6] was 30.9 µM and the IC50 (GABA transporter 2 [7]) was 15.8 µM. The IC50 [8] was 15.1 µM, the IC50 (GABA transporter 4 [9]) was 25.1 µM and the Activity [25] was 71%. For the same compound, the inhibition [11] was < 10%, the inhibition [26] was “Active” and the inhibition [27] was “Active”. For the same compound, the inhibition [12] was 78.9%, the inhibition [13] was 78.6% and the K [14] was 1.34 10^-4/min. The K [15] was 117 M⁻¹ s⁻¹, the TIME [16] was 0.792 h and the T1/2 [17] was 1.44 h. The TIME [18] was 2.09 h, the fold change (FC) [20] was 2 and the Activity (HEK293 [21]) was “Non-Toxic”. For the same compound, the Activity (HepG2) was “Non-Toxic”, the Activity (Mus musculus [28]) was “Active” and the Activity (Mus musculus [29]) was “Active”. For the same compound, the Activity (Mus musculus [30]) was “inactive”, the Activity (Mus musculus [24]) was “inactive” and the IC50 (Cholinesterase) was 0.173 µM. For the same compound, the IC50 (Beta-secretase 1) was 9.42 µM.
`O=C(O)C1=CN(CC/C=C/c2ccccc2-c2ccccc2)CCC1` gave an IC50 ([1]; read-out: IC50) of 0.062 µM, an IC50 ([1]; read-out: pIC50 (converted)) of 0.162 µM and an IC50 (GABA transporter 2 [31]) of 135 µM. For the same compound, the IC50 [32] was 324 µM and the IC50 (GABA transporter 4 [4]) was 288 µM.
